Assay results reported in US20130072430A1, “METHODS FOR TREATMENT OR PROPHYLAXIS OF KIDNEY OR LIVER DYSFUNCTION” (NPS PHARMACEUTICALS, INC., priority 2010, published 2013).

Test system: Human patients with short bowel syndrome
Assay: Example 1: liver diagnostic biomarkers (total bilirubin, ALT, AST, ALP) in short bowel syndrome patients, every four weeks for 24 weeks
Format: in vivo
Design: AST (SGOT) Change from Baseline, Median / ALT (SGPT), Median / TOTAL BILIRUBIN, Median / TOTAL BILIRUBIN Change from Baseline, Median / ALT (SGPT) Change from Baseline, Median / AST (SGOT), Median: unit not given here
Description: Human patients with short bowel syndrome were divided into three groups: a control group (16 total individuals) to receive placebo, an experimental group (35 total individuals) to receive teduglutide at 0.05 mg/kg/day throughout the study, and an experimental group (32 total individuals) to receive teduglutide at 0.1 mg/kg/day throughout the study. Patients were treated by subcutaneous injection of placebo or the appropriate dose of teduglutide. As individuals with short bowel syndrome are likely to experience associated liver and kidney disease, known biomarkers of liver and kidney function were monitored every four weeks, for 24 weeks. The liver biomarkers tested included total bilirubin, ALT and AST and ALP. The kidney biomarkers tested included urea nitrogen, creatinine and GFR. Before administration of placebo or teduglutide, diagnostic biomarker levels were tested to establish a baseline for each individual.
To visualize the effect of GLP-2 on the levels of the diagnostic biomarkers, the average change from baseline was calculated for the placebo and teduglutide treated groups for each visit after a baseline was established. The average change from baseline of each group is depicted in FIGS. […]. The numerical figures for each diaanostic biomarker at each time point are depicted in Table 1.
The efficacy of teduglutide in treating liver dysfunction was further tested by sorting the data into two groups: individuals with abnormal baseline values of liver diagnostic biomarkers; and individuals with normal baseline values of liver diagnostic biomarkers. The mean diagnostic biomarker change from baseline for these two groups is shown for ALT (FIGS. 5 and 6) and AST (FIGS. 7 and 8). […] These changes were significant when compared to baseline levels for the group, and when compared to placebo (see FIGS. 5 and 7).
The raw data for this sorting is reproduced in Table 2 below.

[1] = Week 4, range <−5%, teduglutide 0.05 mg/kg/day
[2] = Week 4, range <−5%, teduglutide 0.1 mg/kg/day
[3] = Week 4, range >5%, teduglutide 0.05 mg/kg/day
[4] = Week 4, range >5%, teduglutide 0.1 mg/kg/day
[5] = Week 4, range −5%<= and <=5%, teduglutide 0.05 mg/kg/day
[6] = Week 4, range −5%<= and <=5%, teduglutide 0.1 mg/kg/day
[7] = Week 8, range <−5%, teduglutide 0.05 mg/kg/day
[8] = Week 8, range <−5%, teduglutide 0.1 mg/kg/day
[9] = Week 8, range >5%, teduglutide 0.05 mg/kg/day
[10] = Week 8, range >5%, teduglutide 0.1 mg/kg/day
[11] = Week 8, range −5%<= and <=5%, teduglutide 0.05 mg/kg/day
[12] = Week 8, range −5%<= and <=5%, teduglutide 0.1 mg/kg/day
[13] = Week 12, range <−5%, teduglutide 0.05 mg/kg/day
[14] = Week 12, range <−5%, teduglutide 0.1 mg/kg/day
[15] = Week 12, range >5%, teduglutide 0.05 mg/kg/day
[16] = Week 12, range >5%, teduglutide 0.1 mg/kg/day

## CC[C@H](C)[C@H](NC(=O)[C@H](Cc1ccccc1)NC(=O)[C@H](CC(=O)O)NC(=O)[C@H](CCCNC(=N)N)NC(=O)[C@H](C)NC(=O)[C@H](C)NC(=O)[C@H](CC(C)C)NC(=O)[C@H](CC(N)=O)NC(=O)[C@H](CC(=O)O)NC(=O)[C@H](CC(C)C)NC(=O)[C@@H](NC(=O)[C@@H](NC(=O)[C@H](CC(N)=O)NC(=O)[C@H](CCSC)NC(=O)[C@H](CCC(=O)O)NC(=O)[C@H](CC(=O)O)NC(=O)[C@H](CO)NC(=O)[C@H](Cc1ccccc1)NC(=O)[C@H](CO)NC(=O)CNC(=O)[C@H](CC(=O)O)NC(=O)CNC(=O)[C@@H](N)Cc1c[nH]cn1)[C@@H](C)O)[C@@H](C)CC)C(=O)N[C@@H](CC(N)=O)C(=O)N[C@@H](Cc1c[nH]c2ccccc12)C(=O)N[C@@H](CC(C)C)C(=O)N[C@H](C(=O)N[C@@H](CCC(N)=O)C(=O)N[C@H](C(=O)N[C@@H](CCCCN)C(=O)N[C@H](C(=O)N[C@H](C(=O)N[C@@H](CC(=O)O)C(=O)O)[C@@H](C)O)[C@@H](C)CC)[C@@H](C)O)[C@@H](C)CC [teduglutide]
0.10 mg/kg/day, DW20
  AST (SGOT), Median: 30.0
  TOTAL BILIRUBIN Change from Baseline, Mean (SD): −2.7 (14.42)
  TOTAL BILIRUBIN Change from Baseline, Median: 0.0
  TOTAL BILIRUBIN, Mean (SD): 10.4 (10.13)
  TOTAL BILIRUBIN, Median: 7.0
0.10 mg/kg/day, DW24
  ALKALINE PHOSPHATASE Change from Baseline, Mean (SD): −18.9 (67.08)
  ALKALINE PHOSPHATASE Change from Baseline, Median: −21.0
  ALKALINE PHOSPHATASE, Mean (SD): 136.7 (85.50)
  ALKALINE PHOSPHATASE, Median: 105.0
  ALT (SGPT) Change from Baseline, Mean (SD): −7.3 (32.62)
  ALT (SGPT) Change from Baseline, Median: −4.0
  ALT (SGPT), Mean (SD): 42.2 (27.28)
  ALT (SGPT), Median: 37.0
  AST (SGOT) Change from Baseline, Mean (SD): −4.8 (23.34)
  AST (SGOT) Change from Baseline, Median: −3.0
  AST (SGOT), Mean (SD): 35.3 (18.69)
  AST (SGOT), Median: 32.0
  TOTAL BILIRUBIN Change from Baseline, Mean (SD): −2.4 (12.73)
  TOTAL BILIRUBIN Change from Baseline, Median: 0.0
  TOTAL BILIRUBIN, Mean (SD): 11.3 (12.28)
  TOTAL BILIRUBIN, Median: 9.0
[1]
  ALKALINE PHOSPHATASE change from baseline: patients in range, n(%): 21(60.0%)
  ALT (SGPT) change from baseline: patients in range, n(%): 22(62.9%)
  AST (SGOT) change from baseline: patients in range, n(%): 21(60.0%)
  TOTAL BILIRUBIN change from baseline: patients in range, n(%): 12(34.3%)
[2]
  ALKALINE PHOSPHATASE change from baseline: patients in range, n(%): 17(53.1%)
  ALT (SGPT) change from baseline: patients in range, n(%): 20(62.5%)
  AST (SGOT) change from baseline: patients in range, n(%): 17(53.1%)
  TOTAL BILIRUBIN change from baseline: patients in range, n(%): 16(50.0%)
[3]
  ALKALINE PHOSPHATASE change from baseline: patients in range, n(%): 3(8.6%)
  ALT (SGPT) change from baseline: patients in range, n(%): 8(22.9%)
  AST (SGOT) change from baseline: patients in range, n(%): 5(14.3%)
  TOTAL BILIRUBIN change from baseline: patients in range, n(%): 8(22.9%)
[4]
  ALKALINE PHOSPHATASE change from baseline: patients in range, n(%): 11(34.4%)
  ALT (SGPT) change from baseline: patients in range, n(%): 10(31.3%)
  AST (SGOT) change from baseline: patients in range, n(%): 10(31.3%)
  TOTAL BILIRUBIN change from baseline: patients in range, n(%): 12(37.5%)
[5]
  ALKALINE PHOSPHATASE change from baseline: patients in range, n(%): 6(17.1%)
  ALT (SGPT) change from baseline: patients in range, n(%): 0(0.0%)
  AST (SGOT) change from baseline: patients in range, n(%): 2(5.7%)
  TOTAL BILIRUBIN change from baseline: patients in range, n(%): 6(17.1%)
[6]
  ALKALINE PHOSPHATASE change from baseline: patients in range, n(%): 4(12.5%)
  ALT (SGPT) change from baseline: patients in range, n(%): 2(6.3%)
  AST (SGOT) change from baseline: patients in range, n(%): 4(12.5%)
  TOTAL BILIRUBIN change from baseline: patients in range, n(%): 3(9.4%)
[7]
  ALKALINE PHOSPHATASE change from baseline: patients in range, n(%): 21(60.0%)
  ALT (SGPT) change from baseline: patients in range, n(%): 16(45.7%)
  AST (SGOT) change from baseline: patients in range, n(%): 16(45.7%)
  TOTAL BILIRUBIN change from baseline: patients in range, n(%): 13(37.1%)
[8]
  ALKALINE PHOSPHATASE change from baseline: patients in range, n(%): 24(75.0%)
  ALT (SGPT) change from baseline: patients in range, n(%): 20(62.5%)
  AST (SGOT) change from baseline: patients in range, n(%): 21(65.6%)
  TOTAL BILIRUBIN change from baseline: patients in range, n(%): 16(50.0%)
[9]
  ALKALINE PHOSPHATASE change from baseline: patients in range, n(%): 6(17.1%)
  ALT (SGPT) change from baseline: patients in range, n(%): 9(25.7%)
  AST (SGOT) change from baseline: patients in range, n(%): 9(25.7%)
  TOTAL BILIRUBIN change from baseline: patients in range, n(%): 8(22.9%)
[10]
  ALKALINE PHOSPHATASE change from baseline: patients in range, n(%): 5(15.6%)
  ALT (SGPT) change from baseline: patients in range, n(%): 8(25.0%)
  AST (SGOT) change from baseline: patients in range, n(%): 5(15.6%)
  TOTAL BILIRUBIN change from baseline: patients in range, n(%): 7(21.9%)
[11]
  ALKALINE PHOSPHATASE change from baseline: patients in range, n(%): 2(5.7%)
  ALT (SGPT) change from baseline: patients in range, n(%): 4(11.4%)
  AST (SGOT) change from baseline: patients in range, n(%): 4(11.4%)
  TOTAL BILIRUBIN change from baseline: patients in range, n(%): 4(11.4%)
[12]
  ALKALINE PHOSPHATASE change from baseline: patients in range, n(%): 2(6.3%)
  ALT (SGPT) change from baseline: patients in range, n(%): 2(6.3%)
  AST (SGOT) change from baseline: patients in range, n(%): 4(12.5%)
  TOTAL BILIRUBIN change from baseline: patients in range, n(%): 6(18.8%)
[13]
  ALKALINE PHOSPHATASE change from baseline: patients in range, n(%): 23(65.7%)
  ALT (SGPT) change from baseline: patients in range, n(%): 19(54.3%)
  AST (SGOT) change from baseline: patients in range, n(%): 19(54.3%)
  TOTAL BILIRUBIN change from baseline: patients in range, n(%): 14(40.0%)
[14]
  ALKALINE PHOSPHATASE change from baseline: patients in range, n(%): 19(59.4%)
  ALT (SGPT) change from baseline: patients in range, n(%): 20(62.5%)
  AST (SGOT) change from baseline: patients in range, n(%): 15(46.9%)
  TOTAL BILIRUBIN change from baseline: patients in range, n(%): 14(43.8%)
[15]
  ALKALINE PHOSPHATASE change from baseline: patients in range, n(%): 2(5.7%)
  ALT (SGPT) change from baseline: patients in range, n(%): 4(11.4%)
  AST (SGOT) change from baseline: patients in range, n(%): 5(14.3%)
  TOTAL BILIRUBIN change from baseline: patients in range, n(%): 6(17.1%)
[16]
  ALKALINE PHOSPHATASE change from baseline: patients in range, n(%): 10(31.3%)
  ALT (SGPT) change from baseline: patients in range, n(%): 7(21.9%)
  AST (SGOT) change from baseline: patients in range, n(%): 10(31.3%)
  TOTAL BILIRUBIN change from baseline: patients in range, n(%): 9(28.1%)
Week 12, range −5%<= and <=5%, teduglutide 0.05 mg/kg/day
  ALKALINE PHOSPHATASE change from baseline: patients in range, n(%): 2(5.7%)
